The values that follow come from ChEMBL document CHEMBL1201862, “PubChem BioAssay data set” (2004).

Among the test systems are MDA-N; RPMI-8226; DU-145; PC-3; HOP-92; OVCAR-4; 786-0; SK-MEL-28; UO-31; BT-549; MOLT-4; A498; NCI/ADR-RES; SNB-19; COLO 205; HL-60; IGROV-1; SF-539; SK-OV-3; A549.
What all share (test): NCI tumour cell line growth inhibition, 48 h

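Each compound was tested at five concentrations against cells in 96-well plates for 48 hours. GI50 is the concentration that inhibits growth by half.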 Activity calls are given as the source filed them. No stated cut-off is given here; in the data, active = GI50 up to about 1.1 µM and inactive = higher.

Consider `C/C(=N\NC(=S)N/N=C(\C)c1ccccn1)c1ccccn1`, for which the GI50 is 5.4 µM (inactive) in the assay on MDA-N; 2.54 µM (inactive) in the assay with RPMI-8226; 3.62 µM (inactive) in the assay on DU-145; 1.27 µM (inactive) with PC-3; 2.82 µM (inactive) in the assay on HOP-92; 1.04 µM (active) with OVCAR-4. In addition, the GI50 is 2.07 µM (inactive) with 786-0; 8.36 µM (inactive) in the assay on SK-MEL-28; 0.809 µM (active) in the assay on UO-31; 5.22 µM (inactive) with BT-549; 1.31 µM (inactive) in the assay on MOLT-4; 6.03 µM (inactive) with A498. Also, the GI50 with NCI/ADR-RES was 0.381 µM (active); in the assay with SNB-19 it was 3.56 µM (inactive); with COLO 205, 3 µM (inactive); in the assay with HL-60, > 100 µM (inactive); with IGROV-1, 4.28 µM (inactive); in the assay with SF-539, 0.979 µM (active). Also, the GI50 is 1.31 µM (inactive) in the assay with SK-OV-3 and 2.18 µM (inactive) in the assay with A549.

As to `CN(C)c1ccc(/C=N/c2ccc(-c3nc4ccccc4s3)cc2)cc1`, the GI50 in the assay on MDA-N is 34.5 µM (inactive); with RPMI-8226, 25.6 µM (inactive); in the assay on DU-145, 35.6 µM (inactive); with PC-3, 22.4 µM (inactive); in the assay with HOP-92, 22.4 µM (inactive); in the assay on OVCAR-4 it was 58.7 µM (inactive). In addition, the GI50 in the assay on 786-0 is 20.2 µM (inactive); in the assay with SK-MEL-28, 48.9 µM (inactive); with UO-31, 43.8 µM (inactive); in the assay with BT-549 it was 35.4 µM (inactive); in the assay on MOLT-4, 23.2 µM (inactive); with A498 it was 10.2 µM (inactive). For the same compound, the GI50 was 28.9 µM (inactive) in the assay with NCI/ADR-RES; 57.9 µM (inactive) with SNB-19; 23.1 µM (inactive) with COLO 205; 0.0408 µM (active) with HL-60; 36.2 µM (inactive) with IGROV-1; 52.8 µM (inactive) with SF-539. For the same compound, the values for the GI50 in the assay on SK-OV-3 and in the assay on A549 were 36.8 µM (inactive) and 39.7 µM (inactive), respectively.

For the compound `CC(=O)O[C@H]1C(=O)[C@@]2(C)[C@H]([C@H](OC(=O)c3ccccc3)[C@]3(O)C[C@H](OC(=O)[C@H](O)[C@@H](NC(=O)CC(C)C)c4ccccc4)C(C)=C1C3(C)C)[C@]1(OC(C)=O)CO[C@@H]1C[C@@H]2O`, the GI50 in the assay with MDA-N was 0.0906 µM (active); with RPMI-8226, < 0.001 µM (active); in the assay with DU-145, 0.0232 µM (active); in the assay on PC-3 it was 0.00281 µM (active); with HOP-92, 0.508 µM (active); with OVCAR-4 it was > 10 µM (inactive). Also, the GI50 in the assay on 786-0 was 0.0378 µM (active); in the assay with SK-MEL-28 it was 0.00318 µM (active); with UO-31, 2.48 µM (inactive); with BT-549 it was 0.248 µM (active); in the assay with MOLT-4, 0.00149 µM (active); in the assay with A498, 0.247 µM (active). Moreover, the GI50 in the assay with NCI/ADR-RES is > 8.61 µM (inactive); in the assay on SNB-19 it was 0.607 µM (active); with COLO 205 it was 0.00178 µM (active); in the assay with HL-60, 0.00111 µM (active); with IGROV-1, 0.00285 µM (active); with SF-539, 0.00204 µM (active). For the same compound, the figures for the GI50 with SK-OV-3 and with A549 were 0.00433 µM (active) and 0.00637 µM (active), respectively.

`N#Cc1nc(/C=C/c2ccccc2)oc1N`: the GI50 is > 100 µM (inactive) in the assay on MDA-N; 34.5 µM (inactive) in the assay on RPMI-8226; > 100 µM (inactive) in the assay on DU-145; > 100 µM (inactive) in the assay on PC-3; > 100 µM (inactive) in the assay on HOP-92; 20.7 µM (inactive) in the assay with OVCAR-4. Moreover, the GI50 in the assay with 786-0 is > 100 µM (inactive); in the assay on SK-MEL-28 it was > 100 µM (inactive); in the assay with UO-31, 7.26 µM (inactive); with BT-549, 13.1 µM (inactive); in the assay with MOLT-4, 13.7 µM (inactive); in the assay with A498, > 100 µM (inactive). Moreover, the GI50 in the assay with NCI/ADR-RES is > 100 µM (inactive); in the assay on SNB-19, > 100 µM (inactive); in the assay on COLO 205, > 100 µM (inactive); with HL-60, > 10 µM (inactive); in the assay on IGROV-1 it was > 100 µM (inactive); in the assay with SF-539 it was > 100 µM (inactive). Also, the GI50 in the assay on SK-OV-3 and in the assay on A549 was > 100 µM (inactive) in each case.
